Some test systems named below: LOX IMVI melanoma; HOP-18 NSCLC; LXFL 529 NSCLC; RXF-631 renal; HCT-116 colon; IGROV1 ovarian; DLD-1 colon; MCF7 breast; SK-MEL-5 melanoma; T-47D breast; SF-539 CNS; PC-3 prostate; DMS 273 small cell lung.
Common to all, as to assay: NCI anticancer screen, dose series, 48 h

The structures appear in SMILES notation. Several values for one entry are separate records, joined by “and”; a condition that tells them apart may be missing. Identical values can stand only once.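 All cell lines were grown in 96-well plates and treated with compound for 48 hours. Abbreviation: GI50, concentration required for 50% inhibition of growth. TGI is the concentration that stops growth completely.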

These results are taken from PubChem BioAssay (NCI).

As for `Cc1ccc(NC(=O)CC/C(CC(=O)C(C)(C)C)=N/NC(=O)c2cc3ccccc3cc2O)cc1C`, the TGI in the assay on LOX IMVI melanoma was 62.9 µM; in the assay on HOP-18 NSCLC, more than 100 µM; with LXFL 529 NSCLC it was more than 100 µM; with RXF-631 renal, more than 100 µM; in the assay with HCT-116 colon it was more than 100 µM; in the assay with IGROV1 ovarian, more than 100 µM. The same molecule displayed a TGI in the assay on DLD-1 colon of more than 100 µM.

In the case of `CC1(C)N=C(/C(Cl)=[N+](/[O-])C(=O)c2ccc(Cl)cc2)C(C)(C)N1O`, the TGI in the assay on MCF7 breast is 32.7 µM; in the assay with LOX IMVI melanoma, 20.4 µM; with SK-MEL-5 melanoma, 43.2 µM; in the assay on T-47D breast, 95.1 µM; in the assay on SF-539 CNS it was 44 µM; in the assay on HCT-116 colon it was 32.5 µM. The TGI is more than 100 µM in the assay on IGROV1 ovarian and 37.5 µM in the assay on PC-3 prostate.

On to `COC(=O)C(Cc1ccccc1)NC(=O)C(CNC(=O)OCc1ccccc1)C(=O)OCc1ccccc1` (centres undefined), for which the TGI in the assay on MCF7 breast was > 100 µM and 79.8 µM; with SK-MEL-5 melanoma it was > 100 µM and 31.4 µM; in the assay on T-47D breast it was more than 100 µM; with HCT-116 colon, more than 100 µM; in the assay on IGROV1 ovarian it was more than 100 µM; in the assay with PC-3 prostate it was more than 100 µM. In addition, in the assay with SK-MEL-5 melanoma, the GI50 was > 100 µM and 14.5 µM.

Consider `COc1cc(C=O)cc(C=Nc2ccc(Br)cc2)c1O`, for which the TGI in the assay with MCF7 breast was more than 100 µM; in the assay with LOX IMVI melanoma, 29.8 µM; in the assay with SK-MEL-5 melanoma, 21.1 µM; in the assay on T-47D breast it was more than 100 µM; in the assay on SF-539 CNS it was 7 µM; in the assay with HCT-116 colon, more than 100 µM. In addition, the TGI in the assay on IGROV1 ovarian is more than 100 µM; with PC-3 prostate, 50.5 µM.

Regarding `CC1CC(c2ccccc2)=Nc2ccccc2S1` (centres undefined), the TGI in the assay with DMS 273 small cell lung, in the assay with LOX IMVI melanoma, in the assay with SK-MEL-5 melanoma, with LXFL 529 NSCLC, with SF-539 CNS and in the assay on RXF-631 renal was more than 100 µM in each case. Further, the TGI in the assay on HCT-116 colon, with IGROV1 ovarian and with DLD-1 colon was more than 100 µM each time.

`O=C(N/N=C/c1ccccc1)c1c(F)c(F)c(F)c(F)c1F`: the TGI in the assay on LOX IMVI melanoma, in the assay with SK-MEL-5 melanoma, in the assay with T-47D breast, in the assay on SF-539 CNS, with HCT-116 colon and with IGROV1 ovarian was more than 100 µM in each case. This molecule also displayed a TGI in the assay on PC-3 prostate of more than 100 µM.

Regarding `CCC12CCC[C@@]13C=C[C@H](O3)C(C)(C)C2=O` (some centres undefined), the TGI in the assay on DMS 273 small cell lung, in the assay on LOX IMVI melanoma, in the assay with SK-MEL-5 melanoma, in the assay with HOP-18 NSCLC, in the assay with LXFL 529 NSCLC and in the assay with SF-539 CNS was more than 100 µM throughout. The TGI with RXF-631 renal, in the assay on HCT-116 colon, in the assay on IGROV1 ovarian and with DLD-1 colon was more than 100 µM each time.

`[C-]#[O+].[Cl][Sn]([Cl])[Cl].[Cl][Sn]([Cl])[Cl].[Pt].c1cnc2c(c1)ccc1cccnc12`: the GI50 in the assay on DMS 273 small cell lung is 2.59 µM; in the assay with HOP-18 NSCLC, 6.73 µM. Moreover, the TGI in the assay with DMS 273 small cell lung is 6 µM; in the assay on MCF7 breast, 56.4 µM; with LOX IMVI melanoma, 15.8 µM; in the assay on SK-MEL-5 melanoma, 13.4 µM; with HOP-18 NSCLC it was more than 100 µM; in the assay on SF-539 CNS it was 16.6 µM. Further, the TGI with HCT-116 colon is more than 24.6 µM; in the assay with IGROV1 ovarian it was 35.7 µM.

Consider `O=C1c2ccccc2-c2c1c1ccccc1c(=O)n2CCCNCCNCCCn1c2c(c3ccccc3c1=O)C(=O)c1ccccc1-2`, for which the GI50 is less than 0.01 µM with LOX IMVI melanoma, less than 0.01 µM in the assay on HCT-116 colon, less than 0.0367 µM in the assay on IGROV1 ovarian and 0.0929 µM with PC-3 prostate. For the same molecule, the TGI was 0.355 µM with LOX IMVI melanoma, 0.163 µM with HCT-116 colon, more than 32.9 µM with IGROV1 ovarian and 1.84 µM in the assay with PC-3 prostate.
